# Test results as given in patent publication US12215112B2, “CD151 inhibitors” (ESFAM BIOTECH PTY LTD, priority 2020, dated 2025).
# pIC50: −log10 of the molar value.
# System: PC3 cells
# Assay: xCELLigence RTCA real-time cell invasion assay (CIM plate, Matrigel) on PC3 prostate cancer cells
# Type: cell-based
# Details: Homo sapiens, PC-3, compound 25 uM to 1 uM, cell index monitored for 72 hours, four-parameter dose-response curve, read-out: IC50, Effect of compounds on the invention on prostate cancer cells
# Procedure: The media antibiotics and serum were purchased from Invitrogen (Life Technologies). PC3 cells were purchased from ATCC (Granville, NSW, Australia). PC3 cells were expanded in cell culture T75 flasks with vented cap and then preserved in low passage number. The medium used for PC3 cells was RPMI (GlutaMAX) supplemented with 10% FCS and 1% penicillin/streptomycin (culture media). The cells were maintained at 37° C. in a humidified 95% (v/v) air/5% (v/v) CO2 environment and were grown up to 80% confluence.
# XCELLigence® real-time cell analysis (RTCA) instrument (ACEA Biosciences), 16-well ACEA CIM-Plates, 16-well ACEA E-Plat and assembly tool were purchased from ELITechGroup empowering IVD (Braeside, Australia). The Matrigel was purchased from Corning (Australia).
# To measure cell invasion under compound treatment the upper chamber of the CIM plate was coated with 5% Matrigel diluted in SF RPMI (20 μl) and incubated in a 37° C. tissue culture incubator for four hours. Using the assembly tool to support the chambers the lower chamber was filled with (160 μl) of culture media containing the compound in specific concertation from 25 uM to 1 uM and two controls (DMSO 0.1% and ESFAM 4C 10 uM) (see the schematic in FIG. 1). Once the upper chamber was placed on the top of the lower chamber it was loaded with (40 μl) serum-free (SF) RPMI containing the compound as previously stated. After one hour calibration in 37° C., plates were placed into the xCELLigence station, and the base-line electric impedance was measured to confirm that all wells and connections were working properly. In case of connection problem, the software automatically informs the researcher about the nature of the problem in the message section. Subsequently cells were trypsinized and upon harvesting and counting they were diluted in SF RPMI to desired density (3×10^4) and seeded (100 μl) in the wells. After 30 minutes of incubation in room-temperature to allow cell attachment the plates were loaded in the xCELLigence RTCA DP machine. The cell invasion was monitored in real-time for the duration of 72 hours. […]
# The xCELLigence system automatically monitored the electrical impedance value of each well and expressed as a cell index (CI) value for the duration of 72 hours. The data for treatments was automatically grouped as the mean±standard deviation. The software version used in these experiments is 1.2.1. The electronic record of the experimental data is automatically saved in file that cannot be altered or changed by the researcher.
# Statistical analysis was performed using Microsoft® Office EXCEL and GraphPad Prism 7. The IC50 was calculated from the four-parameter dose-response curve (log(inhibitor) vs. response-variable slopes). Where the row-data was inserted in GraphPad Prism 7 (Dose response x-log(dose)) and analysed for XY nonlinear regression (curve fit), dose response-inhibition, log(inhibitor) vs response variable slope (four parameters). For the IC90 calculation the log(IC50)=log(IC90)-(1/HillSlope)*log(9) equation was used in EXCEL based on the raw data extracted from xCELLigence system and the dose-response curve.
row,SMILES,pIC50
1,"CN(Cc1ccccc1)c1cc(-c2cn[nH]c2)n2nc(C(=O)Nc3ccc(Cl)cc3)cc2n1 [Compound 29, 5-(benzyl(methyl)amino)-N-(4-chlorophenyl)-7-(1H-pyrazol-4-yl)pyrazolo[1,5-a]pyrimidine-2-carboxamide]",5.45
2,"CN(Cc1ccccc1)c1cc(-c2cn[nH]c2)n2nc(C(=O)Nc3cccc(Cl)c3)cc2n1 [Compound 30, 5-(benzyl(methyl)amino)-N-(3-chlorophenyl)-7-(1H-pyrazol-4-yl)pyrazolo[1,5-a]pyrimidine-2-carboxamide]",5.79
3,"CN(Cc1ccccc1)c1cc(-c2cn[nH]c2)n2nc(C(=O)Nc3ccccc3Cl)cc2n1 [Compound 31, 5-(benzyl(methyl)amino)-N-(2-chlorophenyl)-7-(1H-pyrazol-4-yl)pyrazolo[1,5-a]pyrimidine-2-carboxamide]",5.65
4,"CN(Cc1ccccc1)c1cc(-c2cn[nH]c2)n2nc(C(=O)Nc3ccc(C(F)(F)F)cc3)cc2n1 [Compound 32, 5-(benzyl(methyl)amino)-7-(1H-pyrazol-4-yl)-N-(4-(trifluoromethyl)phenyl)pyrazolo[1,5-a]pyrimidine-2-carboxamide]",5.52
5,"CN(Cc1ccccc1)c1cc(-c2cn[nH]c2)n2nc(C(=O)Nc3cccc(C(F)(F)F)c3)cc2n1 [Compound 33, 5-(benzyl(methyl)amino)-7-(1H-pyrazol-4-yl)-N-(3-(trifluoromethyl)phenyl)pyrazolo[1,5-a]pyrimidine-2-carboxamide]",5.59
6,"CN(Cc1ccccc1)c1cc(-c2cn[nH]c2)n2nc(C(=O)Nc3ccccc3C(F)(F)F)cc2n1 [Compound 34, 5-(benzyl(methyl)amino)-7-(1H-pyrazol-4-yl)-N-(2-(trifluoromethyl)phenyl)pyrazolo[1,5-a]pyrimidine-2-carboxamide]",5.05
7,"CN(Cc1ccccc1)c1cc(-c2cn[nH]c2)n2nc(C(=O)Nc3ccc(F)cc3)cc2n1 [Compound 35, 5-(benzyl(methyl)amino)-N-(4-fluorophenyl)-7-(1H-pyrazol-4-yl)pyrazolo[1,5-a]pyrimidine-2-carboxamide]",5.85
8,"CN(Cc1ccccc1)c1cc(-c2cn[nH]c2)n2nc(C(=O)Nc3cccc(F)c3)cc2n1 [Compound 36, 5-(benzyl(methyl)amino)-N-(3-fluorophenyl)-7-(1H-pyrazol-4-yl)pyrazolo[1,5-a]pyrimidine-2-carboxamide]",5.83
9,"CN(Cc1ccccc1)c1cc(-c2cn[nH]c2)n2nc(C(=O)Nc3ccccc3F)cc2n1 [Compound 37, 5-(benzyl(methyl)amino)-N-(2-fluorophenyl)-7-(1H-pyrazol-4-yl)pyrazolo[1,5-a]pyrimidine-2-carboxamide]",5.51
10,"COc1ccc(CN(C)c2cc(-c3cn[nH]c3)n3nc(C(=O)Nc4ccc(Cl)cc4)cc3n2)cc1 [Compound 38, N-(4-chlorophenyl)-5-((4-methoxybenzyl)(methyl)amino)-7-(1H-pyrazol-4-yl)pyrazolo[1,5-a]pyrimidine-2-carboxamide]",5.36
11,"COc1cccc(CN(C)c2cc(-c3cn[nH]c3)n3nc(C(=O)Nc4ccc(Cl)cc4)cc3n2)c1 [Compound 39, N-(4-chlorophenyl)-5-((3-methoxybenzyl)(methyl)amino)-7-(1H-pyrazol-4-yl)pyrazolo[1,5-a]pyrimidine-2-carboxamide]",5.07
12,"COc1ccccc1CN(C)c1cc(-c2cn[nH]c2)n2nc(C(=O)Nc3ccc(Cl)cc3)cc2n1 [Compound 40, N-(4-chlorophenyl)-5-((2-methoxybenzyl)(methyl)amino)-7-(1H-pyrazol-4-yl)pyrazolo[1,5-a]pyrimidine-2-carboxamide]",5.40
13,"CN(Cc1ccc(C(F)(F)F)cc1)c1cc(-c2cn[nH]c2)n2nc(C(=O)Nc3ccc(Cl)cc3)cc2n1 [Compound 41, N-(4-chlorophenyl)-5-(methyl(4-(trifluoromethyl)benzyl)amino)-7-(1H-pyrazol-4-yl)pyrazolo[1,5-a]pyrimidine-2-carboxamide]",5.01
14,"CN(Cc1cccc(C(F)(F)F)c1)c1cc(-c2cn[nH]c2)n2nc(C(=O)Nc3ccc(Cl)cc3)cc2n1 [Compound 42, N-(4-chlorophenyl)-5-(methyl(3-(trifluoromethyl)benzyl)amino)-7-(1H-pyrazol-4-yl)pyrazolo[1,5-a]pyrimidine-2-carboxamide]",5.54
15,"CN(Cc1ccccc1C(F)(F)F)c1cc(-c2cn[nH]c2)n2nc(C(=O)Nc3ccc(Cl)cc3)cc2n1 [Compound 43, N-(4-chlorophenyl)-5-(methyl(2-(trifluoromethyl)benzyl)amino)-7-(1H-pyrazol-4-yl)pyrazolo[1,5-a]pyrimidine-2-carboxamide]",5.22
16,"CN(Cc1ccc(Cl)cc1)c1cc(-c2cn[nH]c2)n2nc(C(=O)Nc3ccc(Cl)cc3)cc2n1 [Compound 44, 5-((4-chlorobenzyl)(methyl)amino)-N-(4-chlorophenyl)-7-(1H-pyrazol-4-yl)pyrazolo[1,5-a]pyrimidine-2-carboxamide]",4.91
17,"CN(Cc1cccc(Cl)c1)c1cc(-c2cn[nH]c2)n2nc(C(=O)Nc3ccc(Cl)cc3)cc2n1 [Compound 45, 5-((3-chlorobenzyl)(methyl)amino)-N-(4-chlorophenyl)-7-(1H-pyrazol-4-yl)pyrazolo[1,5-a]pyrimidine-2-carboxamide]",4.97
18,"CN(Cc1ccccc1Cl)c1cc(-c2cn[nH]c2)n2nc(C(=O)Nc3ccc(Cl)cc3)cc2n1 [Compound 46, 5-((2-chlorobenzyl)(methyl)amino)-N-(4-chlorophenyl)-7-(1H-pyrazol-4-yl)pyrazolo[1,5-a]pyrimidine-2-carboxamide]",5.15
19,"O=C(Nc1cccc(N2CCOCC2)c1)c1cc2nc(N3Cc4ccccc4C3)cc(-c3cn[nH]c3)n2n1 [Compound 47, 5-(isoindolin-2-yl)-N-(3-morpholinophenyl)-7-(1H-pyrazol-4-yl)pyrazolo[1,5-a]pyrimidine-2-carboxamide]",5.21
20,"CN1CCN(c2cccc(NC(=O)c3cc4nc(N5Cc6ccccc6C5)cc(-c5cn[nH]c5)n4n3)c2)CC1 [Compound 48, 5-(isoindolin-2-yl)-N-(3-(4-methylpiperazin-1-yl)phenyl)-7-(1H-pyrazol-4-yl)pyrazolo[1,5-a]pyrimidine-2-carboxamide]",5.56
21,"CC(=O)N1CCN(c2cccc(NC(=O)c3cc4nc(N5Cc6ccccc6C5)cc(-c5cn[nH]c5)n4n3)c2)CC1 [Compound 49, N-(3-(4-acetylpiperazin-1-yl)phenyl)-5-(isoindolin-2-yl)-7-(1H-pyrazol-4-yl)pyrazolo[1,5-a]pyrimidine-2-carboxamide]",5.23
22,"O=C(Nc1cccc(OC2CCC2)c1)c1cc2nc(N3Cc4ccccc4C3)cc(-c3cn[nH]c3)n2n1 [Compound 50, N-(3-cyclobutoxyphenyl)-5-(isoindolin-2-yl)-7-(1H-pyrazol-4-yl)pyrazolo[1,5-a]pyrimidine-2-carboxamide]",5.84
23,"COc1cc(NC(=O)c2cc3nc(N4Cc5ccccc5C4)cc(-c4cn[nH]c4)n3n2)cc(OC)c1 [Compound 51, N-(3,5-dimethoxyphenyl)-5-(isoindolin-2-yl)-7-(1H-pyrazol-4-yl)pyrazolo[1,5-a]pyrimidine-2-carboxamide]",5.45
24,"COc1cc(Cl)cc(NC(=O)c2cc3nc(N4Cc5ccccc5C4)cc(-c4cn[nH]c4)n3n2)c1 [Compound 52, N-(3-chloro-5-methoxyphenyl)-5-(isoindolin-2-yl)-7-(1H-pyrazol-4-yl)pyrazolo[1,5-a]pyrimidine-2-carboxamide]",5.26
25,"COc1cc(NC(=O)c2cc3nc(N4Cc5ccccc5C4)cc(-c4cn[nH]c4)n3n2)ccc1Cl [Compound 53, N-(4-chloro-3-methoxyphenyl)-5-(isoindolin-2-yl)-7-(1H-pyrazol-4-yl)pyrazolo[1,5-a]pyrimidine-2-carboxamide]",5.56
26,"COc1ccc(NC(=O)c2cc3nc(N4Cc5ccccc5C4)cc(-c4cn[nH]c4)n3n2)cc1 [Compound 54, 5-(isoindolin-2-yl)-N-(4-methoxyphenyl)-7-(1H-pyrazol-4-yl)pyrazolo[1,5-a]pyrimidine-2-carboxamide]",5.78
27,"CCOc1ccc(NC(=O)c2cc3nc(N4Cc5ccccc5C4)cc(-c4cn[nH]c4)n3n2)cc1 [Compound 55, N-(4-ethoxyphenyl)-5-(isoindolin-2-yl)-7-(1H-pyrazol-4-yl)pyrazolo[1,5-a]pyrimidine-2-carboxamide]",5.10
